Laboratory results taken from patent US5525626A (priority 1989, dated 1996).
pIC50: −log10 of the molar value.

Key:
Test in all cases: 3H-thymidine assay
Assay type in all cases: cell-based
HCV cells = test system: HCV cells
K-562 leukemic cells = details: Homo sapiens
Experimental: (§1) The cell lines were cultivated as indicated in Example 1.
(§2) The antiproliferative effect of the 1,2-benzopyrone derivatives according to the invention on the tumor cell lines in each case was shown with the help of the ^3 H-thymidine insertion and with reference to growth curves.
(§3) In a 24-well-plate, in each case 10^4 cells of the line to be investigated were inoculated per well. Approximately 48 hours later the cells were half-confluent; the medium was then changed and replaced by a medium containing the active substance in question (cf Table 3). After a further 48 hours 0.25 μCi ^3 H-thymidine (Ammersham) was added to each well and the cells were incubated for a further 24 hours. Subsequently the cultures were washed twice with ice-cold PBS and the high-molecular-weight ^3 H-radioactivity was precipitated with 5% trichloroacetic acid for one hour at 4° C. After the washing of the cells in PBS the ^3 H-radioactivity was solubilized with 0.3M NaOH and measured in the counter. The growth-inhibition was determined by comparing the thymidine insertion of the cells treated with active substance with untreated cells.
(§4) The active substance concentration in each case was so chosen that ^3 H-thymidine insertion was 50% inhibited. The active substance concentrations used under this aspect for the active substances and cell lines in each case are given in table 4 below in μM/ml, […]

At T 20 = details: Mus musculus
Experimental: as §1, §2, §3, §4

CAKI-1 cells = details: Homo sapiens
Experimental: as §1, §2, §3, §4

[1] = test system: MCF-7 breast cancer cells; details: Homo sapiens
Experimental: as §1, §2, §3, §4

[2] = test system: Z-R-75-1 breast cancer cells; details: Homo sapiens
[3] = test system: Tp 242 MG glioblastoma cells; details: Homo sapiens
CAKI-2 cells = details: Homo sapiens
Experimental: as §1, §2
as §3, with “After a further 48 hours 0.25 μCi ^3 H-thymidine (Ammersham) was added to each well and the cells were incubated for a further 24 hours.” left out
as §4

[4] = test system: Tp 410 N neuroblastoma cells; details: Homo sapiens, Neuroblastoma cell
[5] = read-out: 3H-thymidine tracer (%) of control
[6] = read-out: active substance concentration at which 3H-thymidine insertion was 50% inhibited
[7] = K562, read-out: 3H-thymidine tracer (%) of control
[8] = AtT20, read-out: 3H-thymidine tracer (%) of control
[9] = CAKI-1, read-out: 3H-thymidine tracer (%) of control
[10] = MCF7, read-out: 3H-thymidine tracer (%) of control
[11] = ZR-75-1, read-out: 3H-thymidine tracer (%) of control
[12] = read-out: 3H-thymidine insertion (%) of control
[13] = CAKI-2, read-out: 3H-thymidine tracer (%) of control

SMILES: O=c1ccc2cc(O[C@@H]3O[C@H](CO)[C@@H](O)[C@H](O)[C@H]3O)c(O)cc2o1 [Esculin, 6-beta-D-glucopyranosyloxy-7-hydroxy-1,2-benzopyrone]
- activity at 1 µM (HCV cells; [5]): 100%
- activity at 2 µM (HCV cells; [5]): 98%
- activity at 4 µM (HCV cells; [5]): 95%
- activity at 8 µM (HCV cells; [5]): 89%
- activity at 16 µM (HCV cells; [5]): 86%
- activity at 25 µM (HCV cells; [5]): 83%
- activity at 50 µM (HCV cells; [5]): 79%
- activity at 250 µM (HCV cells; [5]): 76%
- activity at 500 µM (HCV cells; [5]): 75%
- pIC50 (HCV cells; [6]): < 3.30
- activity at 1 µM (K-562 leukemic cells; [7]): 100%
- activity at 2 µM (K-562 leukemic cells; [7]): 100%
- activity at 4 µM (K-562 leukemic cells; [7]): 96%
- activity at 8 µM (K-562 leukemic cells; [7]): 88%
- activity at 16 µM (K-562 leukemic cells; [7]): 81%
- activity at 25 µM (K-562 leukemic cells; [7]): 72%
- activity at 50 µM (K-562 leukemic cells; [7]): 70%
- activity at 100 µM (K-562 leukemic cells; [7]): 58%
- activity at 250 µM (K-562 leukemic cells; [7]): 51%
- activity at 500 µM (K-562 leukemic cells; [7]): 40%
- pIC50 (K-562 leukemic cells; K562, read-out: active substance concentration at which 3H-thymidine insertion was 50% inhibited): 3.60
- activity at 1 µM (At T 20; [8]): 100%
- activity at 2 µM (At T 20; [8]): 94%
- activity at 4 µM (At T 20; [8]): 89%
- activity at 8 µM (At T 20; [8]): 83%
- activity at 16 µM (At T 20; [8]): 72%
- activity at 25 µM (At T 20; [8]): 69%
- activity at 50 µM (At T 20; [8]): 64%
- activity at 100 µM (At T 20; [8]): 58%
- activity at 250 µM (At T 20; [8]): 49%
- activity at 500 µM (At T 20; [8]): 44%
- pIC50 (At T 20; AtT20, read-out: active substance concentration at which 3H-thymidine insertion was 50% inhibited): 3.60
- activity at 1 µM (CAKI-1 cells; [9]): 100%
- activity at 2 µM (CAKI-1 cells; [9]): 94%
- activity at 4 µM (CAKI-1 cells; [9]): 92%
- activity at 8 µM (CAKI-1 cells; [9]): 83%
- activity at 16 µM (CAKI-1 cells; [9]): 78%
- activity at 25 µM (CAKI-1 cells; [9]): 74%
- activity at 50 µM (CAKI-1 cells; [9]): 65%
- activity at 100 µM (CAKI-1 cells; [9]): 60%
- activity at 150 µM (CAKI-1 cells; [9]): 53%
- activity at 500 µM (CAKI-1 cells; [9]): 47%
- pIC50 (CAKI-1 cells; CAKI-1, read-out: active substance concentration at which 3H-thymidine insertion was 50% inhibited): 3.43
- activity at 1 µM [1, 10]: 99%
- activity at 2 µM [1, 10]: 91%
- activity at 4 µM [1, 10]: 88%
- activity at 8 µM [1, 10]: 80%
- activity at 16 µM [1, 10]: 71%
- activity at 25 µM [1, 10]: 69%
- activity at 50 µM [1, 10]: 62%
- activity at 100 µM [1, 10]: 51%
- activity at 250 µM [1, 10]: 49%
- activity at 500 µM [1, 10]: 42%
- pIC50 ([1]; MCF7, read-out: active substance concentration at which 3H-thymidine insertion was 50% inhibited): < 4.00
- activity at 1 µM [2, 11]: 100%
- activity at 2 µM [2, 11]: 97%
- activity at 4 µM [2, 11]: 89%
- activity at 8 µM [2, 11]: 85%
- activity at 16 µM [2, 11]: 75%
- activity at 25 µM [2, 11]: 72%
- activity at 50 µM [2, 11]: 64%
- activity at 100 µM [2, 11]: 56%
- activity at 250 µM [2, 11]: 51%
- activity at 500 µM [2, 11]: 47%
- pIC50 ([2]; ZR-75-1, read-out: active substance concentration at which 3H-thymidine insertion was 50% inhibited): 3.60
- activity at 1 µM [3, 12]: 100%
- activity at 2 µM [3, 12]: 98%
- activity at 4 µM [3, 12]: 95%
- activity at 8 µM [3, 12]: 81%
- activity at 16 µM [3, 12]: 73%
- activity at 25 µM [3, 12]: 68%
- activity at 50 µM [3, 12]: 65%
- activity at 100 µM [3, 12]: 61%
- activity at 250 µM [3, 12]: 53%
- activity at 500 µM [3, 12]: 49%
- pIC50 [3, 6]: 3.30
- activity at 1 µM (CAKI-2 cells; [13]): 99%
- activity at 2 µM (CAKI-2 cells; [13]): 96%
- activity at 4 µM (CAKI-2 cells; [13]): 90%
- activity at 8 µM (CAKI-2 cells; [13]): 84%
- activity at 16 µM (CAKI-2 cells; [13]): 73%
- activity at 25 µM (CAKI-2 cells; [13]): 72%
- activity at 50 µM (CAKI-2 cells; [13]): 66%
- activity at 100 µM (CAKI-2 cells; [13]): 50%
- activity at 150 µM (CAKI-2 cells; [13]): 56%
- activity at 500 µM (CAKI-2 cells; [13]): 52%
- pIC50 (CAKI-2 cells; CAKI-2, read-out: active substance concentration at which 3H-thymidine insertion was 50% inhibited): < 3.30
- activity at 1 µM [4, 12]: 100%
- activity at 2 µM [4, 12]: 96%
- activity at 4 µM [4, 12]: 85%
- activity at 8 µM [4, 12]: 76%
- activity at 16 µM [4, 12]: 69%
- activity at 25 µM [4, 12]: 62%
- activity at 50 µM [4, 12]: 54%
- activity at 100 µM [4, 12]: 43%
- activity at 250 µM [4, 12]: 38%
- activity at 500 µM [4, 12]: 30%
- pIC50 [4, 6]: 4.12
